Results from ChEMBL document CHEMBL4725255, “Broad assessment of bioactivity of a collection of spiroindane pyrrolidines through "cell painting"” (Bioorg Med Chem, 2020).
Calls of active or inactive are those of the source. The calls are words filed in the database; no cut-off is given here.

System: U2OS
Test: Cytotoxicity against human U-2 OS cells assessed as change in cell morphology incubated for 24 hrs at […] measured after various levels of staining by micro XL microscopic-imaging analysis
Format: functional, cell-based

N#CC1Cc2ccccc2C12CCCN2 (stereo in doubt; 14)
Activity: inactive

N#C[C@@H]1C[C@H]2[C@H]3[C@@H]1C=C[C@]32C1=NCCC1
Activity: Active

COc1ccc(-c2ccc3c(c2)C2(CCCN2)C(C#N)C3)cc1 (stereo not given)
Activity: inactive

N#CC1Cc2ccccc2C12CCCN2 (stereo in doubt; 1)
Activity: Active

COCCOC(=O)N1CCCC12CCc1ccc(C#CCO)cc12 (stereo not given)
Activity: Active
